Assays:
Format in all cases: cell-based
DU145 cells = test: In vitro invasion test (Boyden chamber), DU145
Method: (§1) (0.5 nM) for a period of 20 hours. The untreated cells represent the control and determine a base invasion of 100%.
(§2) FIG. 3: A study of the involvement of EphA2 on the pro-invasive effects of proNGF. The invasion test is carried out on cells MDA-MB-231 (A), DU145 (B) and PC3 (C) transfected with a siRNA against EphA2 (siEphA2), TrkA (siTrkA) or a random siRNA (siCTRL). The transfected siCTRL cells are treated to provide a control and determine a base invasion of 100% (white column). […] The efficacy of the siRNA is measured by the western blot method through the use of specific antibodies against TrkA, EphA2, and actin (load control).
The Boyden Chambers (Transwell®; BD Biosciences; France) were recovered from a biological matrix (type 1 collagen from rats diluted to 400 μg·mL-1 in EMEM-0.1% FCS medium; Millipore). The cells were then seeded with 100,000 cells/well on PET membranes (polyethylene terephtalate; dia.: 10.5 mm; porosity: 8 μm) of Boyden Chambers and held in an EMEM-0.1% FCS medium. […] (0.5 nM) in the lower part. […] The number of cells was estimated after staining with Hoechst 33 258 (1 mM; 30 min; 20° C.) by counting the nuclei thereof using fluorescence microscopy on a total of 5 five randomly chosen fields (lens 10×; λ-excitation: 345 nm; λ-emission: 478 nm; Eclipse Ti) using the ImageJ software. […]

MDA-MB-231 cells = test: In vitro invasion test (Boyden chamber), MDA-MB-231
Method: as §1, §2
FIG. 10: Study on the effect of lestaurtinib (TrkA inhibitor) and EphrinA1-Fc (EphA2 inhibitor) and combination of treatment on invasion of breast cancer cells. […] Non-stimulated cells (“non stim”) of proNGF served as the control and determined a base invasion of 100% (white bar).
The Boyden Chambers (Transwell®; BD Biosciences; France) were recovered from a biological matrix (type 1 collagen from rats diluted to 400 μg·mL-1 in EMEM-0.1% FCS medium; Millipore). […] The number of cells was estimated after staining with Hoechst 33 258 (1 mM; 30 min; 20° C.) by counting the nuclei thereof using fluorescence microscopy on a total of 5 five randomly chosen fields (lens 10×; λ-excitation: 345 nm; λ-emission: 478 nm; Eclipse Ti) using the ImageJ software. […]

[1] = molecular target: T1, TrkA/sortilin/EphA2 complex (Homo sapiens, UniProt Q99523); test: Immunoprecipitation of the TrkA/sortilin/EphA2 complex in cells MDA-MB-231 HA-TrkA; conditions: MDA-MB-231 HA-TrkA
T1 construct: expressed in transfected cells
T1 sequence (Q99523 78-831): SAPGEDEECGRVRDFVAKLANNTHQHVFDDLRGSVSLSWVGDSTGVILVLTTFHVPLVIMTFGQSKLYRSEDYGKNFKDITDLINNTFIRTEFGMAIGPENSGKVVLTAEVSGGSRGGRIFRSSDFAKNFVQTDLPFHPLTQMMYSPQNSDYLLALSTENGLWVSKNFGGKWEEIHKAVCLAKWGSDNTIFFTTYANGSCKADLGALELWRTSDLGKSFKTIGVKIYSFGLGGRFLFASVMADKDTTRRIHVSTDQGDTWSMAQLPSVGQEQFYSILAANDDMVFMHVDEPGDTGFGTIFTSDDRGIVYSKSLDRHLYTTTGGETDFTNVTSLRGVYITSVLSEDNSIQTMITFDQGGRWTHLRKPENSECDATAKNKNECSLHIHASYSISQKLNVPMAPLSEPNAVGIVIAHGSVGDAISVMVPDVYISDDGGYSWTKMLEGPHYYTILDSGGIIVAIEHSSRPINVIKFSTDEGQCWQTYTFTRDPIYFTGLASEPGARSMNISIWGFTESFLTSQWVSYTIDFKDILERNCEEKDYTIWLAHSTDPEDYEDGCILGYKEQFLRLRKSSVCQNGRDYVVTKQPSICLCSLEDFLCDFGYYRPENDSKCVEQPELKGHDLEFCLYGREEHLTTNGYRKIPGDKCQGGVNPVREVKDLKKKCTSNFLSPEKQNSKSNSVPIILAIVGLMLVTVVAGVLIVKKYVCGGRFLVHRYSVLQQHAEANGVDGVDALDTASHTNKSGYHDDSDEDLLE
Method: A. Cells MDA-MB-231 HA-TrkA were transfected with siTrkA and then treated with proNGF N.C.
D. Cells MDA-MB-231 HA-TrkA were transfected with siEphA2 and then treated with proNGF N.C. (30 min).
The sequences of siRNA used against EphA2 (siEphA2) at 100 pmol for each transfection, and against TrkA (pool of 3 siTrkA 1, 2 and 3) are given in table 1. The transfections of siRNA are produced by means of [sequence]in™ according to the manufacturers instructions (POL409-10, Polyplus transfection, Ozyme, Saint Quentin en Yvelines, France).
The beads (Protein G-agarose, Millipore) were washed twice (12,000 g; 1 min; 4° C.) and recovered in PBS IX (at 50% (v/v)). The protein samples (1 mg) were pre-clarified (1 h; 4° C.; on a wheel (10 rpm)) with 100 μl of beads and 5 μg of isotypical antibodies (mouse IgG2b), centrifuged (12,000 g; 2 min; 4° C.), then the supernatant was incubated (2 h; 4° C.; on a wheel (10 rpm)) with 5 μg of α-HA 12CA5 antibody (Roche). The beads (100 μL at 50% in PBS IX) were added directly to the antibody/protein complex then incubated (2 h; 4° C.; on a wheel (10 rpm)). The antibody/antigen/bead complexes were then centrifuged (12,000 g; 5 min; 4° C.), washed three times (lysis buffer; 4° C.), then disassociated by addition of Laemmli 2× buffer (25 mM Tris-HCl, 0.8% SDS, 4% glycerol, 1% β-mercaptoethanol, pH 6.8) (7 min; 100° C.). […]

[2] = siRNA transfection vs siCTRL, proNGF
[3] = NGF 16 nM or proNGF N.C. 0.5 nM, untreated cells = 100%

Substance	invasion induced by proNGF in siRNA-transfected cells (DU145 cells; [2])	invasion induced by proNGF in siRNA-transfected cells (MDA-MB-231 cells; [2])	formation of the TrkA/sortilin/EphA2 complex under proNGF with invalidation of a receptor ([1]; proNGF N.C., siRNA transfection or 1 μM neurotensin)	cell invasion under growth factor (DU145 cells; [3])	cell invasion under growth factor (MDA-MB-231 cells; [3])	association of TrkA, sortilin and EphA2 (co-immunoprecipitation) under ligand treatment ([1]; 0.5 nM proNGF N.C. or 16 nM NGF, 5 and 30 min)
siEphA2: siRNA against EphA2, GCAAGGAAGUGGUACUGCUGGACUU (SEQ ID NO: 1) (listed as RNA, chemistry not given here)	abolished the invasion induced by proNGF	abolished the invasion induced by proNGF	no bond was observed between EphA2 and TrkA			
NGF: Nerve Growth Factor; recombinant human β NGF supplied by Scil Proteins				increased cell invasion	increased cell invasion	induce a delayed association of TrkA and sortilin but does not induce bonding with EphA2

Source: US20170258871A1, “COMBINED USE OF A TRKA INHIBITOR AND AN EPHA2 INHIBITOR FOR USING IN THE TREATMENT OF SOLID CANCERS, AND METHOD FOR THE PROGNOSIS OF SURVIVAL OF A PATIENT WHO HAS A SOLID CANCER” (UNIVERSITE DES SCIENCES ET TECHNOLOGIES DE LILLE, priority 2014, published 2017)
